According to PMC10515483, “Structure–Reactivity Studies of 2-Sulfonylpyrimidines Allow Selective Protein Arylation” (Bioconjugate Chemistry, 2023):

Experiments:
p53-Y220C = target: T1, p53-Y220C (Homo sapiens, UniProt P04637, M133L/N239Y/N268D/V203A/Y220C); assay: Differential scanning fluorimetry (DSF); format: binding; conditions: 100 μM compound; 8 µM p53-Y220C; read-out: Protein thermal stability ΔTm
T1 construct: (residues 94-312); 6xHis/lipoyl domain/TEV protease cleavage site (N, cleaved yes); made in house; host or cells: E. coli C41
Description: We also probed the general effect of 2-SPs on protein stability by using differential scanning fluorimetry (DSF). […] Mutants of the 25 kDa DNA-binding domain of the tumor suppressor p53 are notorious for their reduced thermal stability and denaturation/aggregation propensity.[37] The 56 kDa armadillo domain (ARD) of β-catenin mediates canonical Wnt signaling and plays a central role in embryogenesis and tissue homeostasis.[38] FGE (37 kDa) is the only known activator of human sulfatases, and its stability is susceptible to modification of its cysteines.[39] […]
described.7 Briefly, the N-terminal fusion protein (6xHis/lipoyl domain/TEV protease cleavage site) was overexpressed using E. coli C41 cells in 2xTY medium at 20°C for 16 h and purified using standard Ni-affinity chromatography protocols. […]
was further purified using a Heparin column. Finally, gel filtration chromatography was performed using a Superdex 75 16/60 preparative gel filtration column (GE Healthcare) in a 25 mM KPi (pH 7.2), 150 […]
mM NaCl, and 1 mM TCEP buffer. […]
gel electrophoresis and ESI-MS. […]

[1] = Hydrolytic stability in KPi buffer without thiol (NMR); format: physicochemical; conditions: for % degradation: over 12 hours, 50 mM KPi, footnote a: crashing out of solution, no degradation product
Protocol: NMR studies: rate constant determination and hydrolytic stability. 850 µL of 50 mM Kpi buffer solution (pH 8.2 or 7), 20 µL of the appropriate pyrimidine stock s olution (100 mM in DMSO -d6), 20 µL of TMSP stock solution (22.2 mM in DI water), 30 µL DMSO -d6, and 80 µL of GSH stock solution (0.25 M in DI water, reactivity only) were successively added/mixed at room temperature, final pH 7.0 or 6.5 (Table S1). 600 µL of this freshly prepared solution was poured into an NMR tube and immediately […]
transferred to the NMR instrument for acquisition. 1H spectra (16 scans) were recorded every 10 minutes under water suppression conditions. Following acquisition, spectra were analysed using […]
order reaction rate constants (k’).

[2] = GSH arylation rate constants (NMR; UV-vis for fast warheads); format: physicochemical; conditions: for k: Table S8, rate constants obtained at pH = 7; for k/kref / ΔΔG≠1exp: relative to 4q; for ΔΔG≠1exp: via -RTln(k/kref)
Procedure, shortened: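 Second-order rate constants k for GSH arylation derived from pseudo-first-order k′ (warhead:GSH 1:10), by normalized NMR integration of the disappearing warhead signal over 6 h; TMSP internal standard. KPi buffer with 5% d6-DMSO, pH 7.0 and 6.5, 20 °C; UV–vis used for fast warheads. Mean of ≥2 independent runs.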

[3] = pH 6.5, by NMR, KPi buffer, 5% DMSO-d6
[4] = pH 7.0, by NMR, KPi buffer, 5% DMSO-d6
[5] = pH 7.0, ratio to rate constant of 4q, acceleration (+) or deceleration (-)
[6] = pH 6.5, measured by UV titrations
[7] = pH 7.0, measured by UV titrations

| SMILES | ΔTm at 100 µM (p53-Y220C) [°C] | % degradation ([1]; pH 7.0) [%] | melting point [°C] | % degradation ([1]; pH 8.2) [%] | hydrolysis in aqueous buffer (in words) ([1]; buffer in the absence of GSH) | k [2] [M⁻¹ s⁻¹] | rate constant (k) for the reaction with GSH [2, 3] [M⁻¹ s⁻¹] | rate constant (k) for the reaction with GSH [2, 4] [M⁻¹ s⁻¹] | k change (vs ref) [2, 5] | k/kref [2] | ΔΔG≠1exp [2] [kcal/mol] | rate constant (k) for the reaction with GSH [2, 6] [M⁻¹ s⁻¹] | rate constant (k) for the reaction with GSH [2, 7] [M⁻¹ s⁻¹] | second order rate constant k with GSH ([2]; pH 7.0, KPi buffer) | k change (vs ref) ([2]; pH 7.0, ratio to 4q, from value measured by UV titrations (footnote a)) |
| --- | --- | --- | --- | --- | --- | --- | --- | --- | --- | --- | --- | --- | --- | --- | --- |
| CS(=O)(=O)c1nccc(N)n1 [4g] | -0.2 ± 0.1 | 5 | 166 |  |  | 0.023 | 0.032 ± 0.006 | 0.023 ± 0.003 | ≈ | 0.92 | 0.0502 |  |  |  |  |
| CS(=O)(=O)c1nccc(C(=O)O)n1 [4d] | 0.2 | < 5 | 115 to 118 | < 5 |  | 0.0050 | 0.0015 | 0.005 | -5 fold | 0.20 | 0.956 |  |  |  |  |
| CS(=O)(=O)c1ncc(C(=O)O)cn1 [4v] | 3 | 18 | 138 |  |  | 30 |  |  | +1,200 fold | 1200 | -4.3 | 6.7 ± 3.1 | 30 ± 3.2 |  |  |
| CS(=O)(=O)c1nccc(C(F)(F)F)n1 [4l] | 1.8 | 17 | 82 | 65 | partial, slow hydrolysis | 21 |  |  |  | 840 | -4.06 | 4.9 ± 0.48 | 21 ± 0.6 | ≈ 21 M^–1 s^–1 | +840 fold |

More lines, main results first:

| ΔTm at 100 µM (p53-Y220C) [°C] | % degradation ([1]; pH 7.0) [%] | melting point [°C] | % degradation ([1]; pH 8.2) [%] | hydrolysis in aqueous buffer (in words) ([1]; buffer in the absence of GSH) | SMILES | k [2] [M⁻¹ s⁻¹] | rate constant (k) for the reaction with GSH [2, 3] [M⁻¹ s⁻¹] | rate constant (k) for the reaction with GSH [2, 4] [M⁻¹ s⁻¹] | k change (vs ref) [2, 5] | k/kref [2] | ΔΔG≠1exp [2] [kcal/mol] | rate constant (k) for the reaction with GSH [2, 6] [M⁻¹ s⁻¹] | rate constant (k) for the reaction with GSH [2, 7] [M⁻¹ s⁻¹] | second order rate constant k with GSH ([2]; pH 7.0, KPi buffer) | k change (vs ref) ([2]; pH 7.0, ratio to 4q, from value measured by UV titrations (footnote a)) |
| --- | --- | --- | --- | --- | --- | --- | --- | --- | --- | --- | --- | --- | --- | --- | --- |
| 0.4 | 100 | 225 | 100 |  | O=[N+]([O-])c1ccc(S(=O)(=O)c2ncccn2)cc1 [5f] | 0.29 |  |  | +12 fold | 12 | -1.46 | 0.2 ± 0.09 | 0.29 ± 0.17 |  |  |
| 1.8 | 100 | 91 to 92 | 100 |  | O=S(=O)(CC(F)(F)F)c1ncccn1 [5e] | 0.23 | 0.04 ± 0.005 | 0.23 ± 0.05 | +9 fold | 9.2 | -1.29 |  |  |  |  |
